According to patent US9458135B2, “Dihydroquinoline-2-one derivatives” (Hoffmann-La Roche Inc., priority 2014, dated 2016):

Legend:
[1] = biological target: human CYP11B1 (Homo sapiens (Human), UniProt P15538); assay: G-402 cellular enzyme assay, human CYP11B1 (cortisol release, HTRF); type: cell-based; settings: G-402 cells expressing human CYP11B1; 1 μM Deoxycortisol
Description: (§1) Herein we identified the use of the G-402 cell line as a host cell to ectopically express (transiently or stably) enzymes of the CYP11 family. Specifically we developed stable G-402 cells expressing ectopically human CYP11B1, human CYP11B2, human CYP11A1, cynmolgus CYP11B1 or cynomolgus CYP11B2 enzyme activity. Importantly the identified cell line G-402 expresses co-factors (adrenodoxin and adrenodoxin reductase) important for the activity of the CYP11 family and no relevant enzyme activity of the CYP11 family (in comparison to H295R cells) was detected in these cells. Therefore the G-402 cell line is uniquely suited as a host cell for the ectopic expression of enzymes from the CYP11 family.
(§2) The expression plasmids contains the ORF for either huma/cyno CYP11B1 or CYP11B2 under the control of a suitable promoter (CMV-promoter) and a suitable resistance marker (neomycin). Using standard techniques the expression plasmid is transfected into G-402 cells and these cells are then selected for expressing the given resistance markers. Individual cell-clones are then selected and assessed for displaying the desired enzymatic activity using 11-Deoxycorticosterone (Cyp11B2) or 11-Deoxycortisol (Cyp11B1) as a substrate.
(§3) G-402 cells expressing CYP11 constructs were established as described above and maintained in McCoy's 5a Medium Modified, ATCC Catalog No. 30-2007 containing 10% FCS and 400 μg/ml G418 (Geneticin) at 37° C. under an atmosphere of 5% CO2/95% air. Cellular enzyme assays were performed in DMEM/F12 medium containing 2.5% charcoal treated FCS and appropriate concentration of substrate (0.3-10 uM 11-Deoxycorticosterone, 11-Deoxycortisol or Corticosterone). For assaying enzymatic activity, cells were plated onto 96 well plates and incubated for 16 h. An aliquot of the supernatant is then transferred and analyzed for the concentration of the expected product (Aldosterone for CYP11B2; Cortisol for CYP11B1). The concentrations of these steroids can be determined using HTRF assays from CisBio analyzing either Aldosterone or Cortisol.
(§4) Inhibition of the release of produced steroids can be used as a measure of the respective enzyme inhibition by test compounds added during the cellular enzyme assay. The dose dependent inhibition of enzymatic activity by a compound is calculated by means of plotting added inhibitor concentrations (x-axes) vs. measured steroid/product level (y-axes). The inhibition is then calculated by fitting the following 4-parameter sigmoidal function (Morgan-Mercer-Flodin (MMF) model) to the raw data points using the least squares method:
(§5) [formula] wherein, A is the maximum y value, B is the EC50 factor determined using XLFit, C is the minimum y value and D is the slope value.
(§6) EC50 values for compounds claimed herein were tested with the G402-based assay system described. Cyp11B2 enzyme activity was tested in presence of 1 μM Deoxycorticosterone and variable amounts of inhibitors; Cyp11B1 enzyme activity was tested in presence of 1 μM Deoxycortisol and variable amounts of inhibitors.

[2] = biological target: human CYP11B2 (Homo sapiens (Human), UniProt P19099); assay: G-402 cellular enzyme assay, human CYP11B2 (aldosterone release, HTRF); type: cell-based; settings: G-402 cells expressing human CYP11B2; 1 μM Deoxycorticosterone
Description: as §1, §2, §3, §4, §5, §6

Chain of human CYP11B2 (P19099 25-503): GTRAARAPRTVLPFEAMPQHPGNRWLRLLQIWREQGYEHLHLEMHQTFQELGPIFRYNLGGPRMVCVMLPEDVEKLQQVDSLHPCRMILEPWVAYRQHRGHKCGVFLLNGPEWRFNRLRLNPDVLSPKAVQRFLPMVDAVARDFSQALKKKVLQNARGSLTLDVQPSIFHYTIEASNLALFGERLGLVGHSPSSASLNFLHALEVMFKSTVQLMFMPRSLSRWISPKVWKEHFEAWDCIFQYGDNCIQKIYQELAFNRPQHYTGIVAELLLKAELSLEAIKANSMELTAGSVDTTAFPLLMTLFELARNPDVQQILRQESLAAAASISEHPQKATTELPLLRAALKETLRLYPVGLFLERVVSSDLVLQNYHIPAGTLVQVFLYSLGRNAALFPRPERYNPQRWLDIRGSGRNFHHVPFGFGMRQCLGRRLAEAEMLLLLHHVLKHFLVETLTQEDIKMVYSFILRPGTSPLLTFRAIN
Chain of human CYP11B1 (P15538 25-503): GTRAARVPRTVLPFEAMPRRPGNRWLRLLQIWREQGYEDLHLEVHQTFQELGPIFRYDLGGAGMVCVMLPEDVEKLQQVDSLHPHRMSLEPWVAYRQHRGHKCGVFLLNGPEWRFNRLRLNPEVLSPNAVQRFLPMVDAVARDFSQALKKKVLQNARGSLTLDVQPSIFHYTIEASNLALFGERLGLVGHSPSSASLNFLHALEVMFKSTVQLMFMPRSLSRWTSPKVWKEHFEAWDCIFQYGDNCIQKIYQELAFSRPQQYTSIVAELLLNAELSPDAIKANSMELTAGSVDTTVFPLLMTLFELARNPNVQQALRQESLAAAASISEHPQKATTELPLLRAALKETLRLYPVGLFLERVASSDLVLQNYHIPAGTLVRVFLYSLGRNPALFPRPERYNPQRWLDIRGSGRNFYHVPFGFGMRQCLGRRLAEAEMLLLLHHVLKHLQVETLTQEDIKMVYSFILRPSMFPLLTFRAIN

Row | SMILES | EC50 [1] [nM] | EC50 [2] [nM]
1 | CN1C(=O)CCc2cc(-c3cncc(COc4cccc(Cl)n4)c3)ccc21 [Example 1, 6-[5-(6-Chloro-pyridin-2-yloxymethyl)-pyridin-3-yl]-1-methyl-3,4-dihydro-1H-quinolin-2-one] | 9.1 | 0.2
2 | CN1C(=O)CCc2cc(-c3cncc(COc4ccc(F)cn4)c3)ccc21 [Example 2, 6-[5-(5-Fluoro-pyridin-2-yloxymethyl)-pyridin-3-yl]-1-methyl-3,4-dihydro-1H-quinolin-2-one] | 6.3 | 0.2
3 | Cc1cccc(OCc2cncc(-c3ccc4c(c3)CCC(=O)N4C)c2)n1 [Example 3, 1-Methyl-6-[5-(6-methyl-pyridin-2-yloxymethyl)-pyridin-3-yl]-3,4-dihydro-1H-quinolin-2-one] | 4.8 | 0.1
4 | Cc1cc(OCc2cncc(-c3ccc4c(c3)CCC(=O)N4C)c2)nc(C(F)(F)F)c1 [Example 4, 1-Methyl-6-[5-(4-methyl-6-trifluoromethyl-pyridin-2-yloxymethyl)-pyridin-3-yl]-3,4-dihydro-1H-quinolin-2-one] | 3.6 | 0.4
5 | Cc1ccnc(OCc2cncc(-c3ccc4c(c3)CCC(=O)N4C)c2)c1 [Example 5, 1-Methyl-6-[5-(4-methyl-pyridin-2-yloxymethyl)-pyridin-3-yl]-3,4-dihydro-1H-quinolin-2-one] | 1.7 | 0.1
6 | CN1C(=O)CCc2cc(-c3cncc(COc4ccc(Cl)cn4)c3)ccc21 [Example 6, 6-[5-(5-Chloro-pyridin-2-yloxymethyl)-pyridin-3-yl]-1-methyl-3,4-dihydro-1H-quinolin-2-one] | 1.9 | 0.1
7 | CN1C(=O)CCc2cc(-c3cncc(COc4ccccn4)c3)ccc21 [Example 7, 1-Methyl-6-[5-(pyridin-2-yloxymethyl)-pyridin-3-yl]-3,4-dihydro-1H-quinolin-2-one] | 8.7 | 0.2
8 | CN1C(=O)CCc2cc(-c3cncc(COc4ncccc4C(F)(F)F)c3)ccc21 [Example 8, 1-Methyl-6-[5-(3-trifluoromethyl-pyridin-2-yloxymethyl)-pyridin-3-yl]-3,4-dihydro-1H-quinolin-2-one] | 72.8 | 2.3
9 | Cc1nccc(OCc2cncc(-c3ccc4c(c3)CCC(=O)N4C)c2)n1 [Example 9, 1-Methyl-6-[5-(2-methyl-pyrimidin-4-yloxymethyl)-pyridin-3-yl]-3,4-dihydro-1H-quinolin-2-one] | 4.2 | 0.1
10 | CN1C(=O)CCc2cc(-c3cncc(COc4ccnc(C(F)(F)F)n4)c3)ccc21 [Example 10, 1-Methyl-6-[5-(2-trifluoromethyl-pyrimidin-4-yloxymethyl)-pyridin-3-yl]-3,4-dihydro-1H-quinolin-2-one] | 12.3 | 0.3
11 | CN1C(=O)CCc2cc(-c3cncc(COc4cnc(Cl)nc4)c3)ccc21 [Example 11, 6-[5-(2-Chloro-pyrimidin-5-yloxymethyl)-pyridin-3-yl]-1-methyl-3,4-dihydro-1H-quinolin-2-one] | 0.8 | 0.1
12 | CN1C(=O)CCc2cc(-c3cncc(COc4ncccn4)c3)ccc21 [Example 12, 1-Methyl-6-[5-(pyrimidin-2-yloxymethyl)-pyridin-3-yl]-3,4-dihydro-1H-quinolin-2-one] | 101 | 3.6
13 | CN1C(=O)CCc2cc(-c3cncc(CSc4nc5ccccc5o4)c3)ccc21 [Example 13, 6-[5-(Benzooxazol-2-ylsulfanylmethyl)-pyridin-3-yl]-1-methyl-3,4-dihydro-1H-quinolin-2-one] | 0.9 | 0.3
14 | Cc1cccc(SCc2cncc(-c3ccc4c(c3)CCC(=O)N4C)c2)n1 [Example 14, 1-Methyl-6-[5-(6-methyl-pyridin-2-ylsulfanylmethyl)-pyridin-3-yl]-3,4-dihydro-1H-quinolin-2-one] | 0.1 | 0.012
15 | CN1C(=O)CCc2cc(-c3cncc(CSc4ncccc4C(F)(F)F)c3)ccc21 [Example 15, 1-Methyl-6-[5-(3-trifluoromethyl-pyridin-2-ylsulfanylmethyl)-pyridin-3-yl]-3,4-dihydro-1H-quinolin-2-one] | 14.3 | 0.5
16 | CN1C(=O)CCc2cc(-c3cncc(CSc4ncccc4Cl)c3)ccc21 [Example 16, 6-[5-(3-Chloro-pyridin-2-ylsulfanylmethyl)-pyridin-3-yl]-1-methyl-3,4-dihydro-1H-quinolin-2-one] | 45.7 | 1.4
17 | CN1C(=O)CCc2cc(-c3cncc(COc4cc(C#N)ccn4)c3)ccc21 [Example 17, 2-[5-(1-Methyl-2-oxo-1,2,3,4-tetrahydro-quinolin-6-yl)-pyridin-3-ylmethoxy]-isonicotinonitrile] | 0.9 | 0.2
18 | CN1C(=O)CCc2cc(-c3cncc(COc4cccc(F)n4)c3)ccc21 [Example 18, 6-[5-(6-Fluoro-pyridin-2-yloxymethyl)-pyridin-3-yl]-1-methyl-3,4-dihydro-1H-quinolin-2-one] | 7.5 | 0.3
19 | CN1C(=O)CCc2cc(-c3cncc(COc4ncccc4F)c3)c(F)cc21 [Example 19, 7-Fluoro-6-[5-(3-fluoro-pyridin-2-yloxymethyl)-pyridin-3-yl]-1-methyl-3,4-dihydro-1H-quinolin-2-one] | 997 | 14.1
20 | CN1C(=O)CCc2cc(-c3cncc(COc4ccc(Cl)cn4)c3)c(F)cc21 [Example 20, 6-[5-(5-Chloro-pyridin-2-yloxymethyl)-pyridin-3-yl]-7-fluoro-1-methyl-3,4-dihydro-1H-quinolin-2-one] | 1.6 | 0.1
21 | CN1C(=O)CCc2cc(-c3cncc(COc4cccc(Cl)n4)c3)c(F)cc21 [Example 21, 6-[5-(6-Chloro-pyridin-2-yloxymethyl)-pyridin-3-yl]-7-fluoro-1-methyl-3,4-dihydro-1H-quinolin-2-one] | 16.3 | 0.3
22 | Cc1cccc(OCc2cncc(-c3cc4c(cc3F)N(C)C(=O)CC4)c2)n1 [Example 22, 7-Fluoro-1-methyl-6-[5-(6-methyl-pyridin-2-yloxymethyl)-pyridin-3-yl]-3,4-dihydro-1H-quinolin-2-one] | 216 | 2
23 | Cc1ccnc(OCc2cncc(-c3cc4c(cc3F)N(C)C(=O)CC4)c2)c1 [Example 23, 7-Fluoro-1-methyl-6-[5-(4-methyl-pyridin-2-yloxymethyl)-pyridin-3-yl]-3,4-dihydro-1H-quinolin-2-one] | 4.1 | 0.1
24 | Cc1cccc(OCc2cncc(-c3cc4c(cc3F)N(C)C(=O)CC4)c2C)n1 [Example 24, 7-Fluoro-1-methyl-6-[4-methyl-5-(6-methyl-pyridin-2-yloxymethyl)-pyridin-3-yl]-3,4-dihydro-1H-quinolin-2-one] | 105 | 0.7
25 | Cc1c(COc2cccc(Cl)n2)cncc1-c1cc2c(cc1F)N(C)C(=O)CC2 [Example 25, 6-[5-(6-Chloro-pyridin-2-yloxymethyl)-4-methyl-pyridin-3-yl]-7-fluoro-1-methyl-3,4-dihydro-1H-quinolin-2-one] | 116 | 1.3
26 | Cc1c(COc2ncccc2F)cncc1-c1cc2c(cc1F)N(C)C(=O)CC2 [Example 26, 7-Fluoro-6-[5-(3-fluoro-pyridin-2-yloxymethyl)-4-methyl-pyridin-3-yl]-1-methyl-3,4-dihydro-1H-quinolin-2-one] | 866 | 5
27 | Cc1c(COc2cccc(F)n2)cncc1-c1cc2c(cc1F)N(C)C(=O)CC2 [Example 27, 7-Fluoro-6-[5-(6-fluoro-pyridin-2-yloxymethyl)-4-methyl-pyridin-3-yl]-1-methyl-3,4-dihydro-1H-quinolin-2-one] | 20.8 | 0.2
28 | Cc1cccc(NC(=O)Cc2cncc(-c3ccc4c(c3)CCC(=O)N4C)c2)n1 [Example 28, 2-[5-(1-Methyl-2-oxo-1,2,3,4-tetrahydro-quinolin-6-yl)-pyridin-3-yl]-N-(6-methyl-pyridin-2-yl)-acetamide] | 14.5 | 2.2
